{"source": "patent EP0745595A1", "about": "“3-(3-Aryloxyphenyl)-1-(substituted methyl)-s-triazine-2,4,6-oxo or thiotrione herbicidal agents” (American Cyanamid Company, priority 1995, dated 1996)", "format_in_all_cases": "in vivo", "key": {"[1]": {"test_system": "ABUTILON THEOPHRASTI, MEDIC.", "assay": "Postemergence herbicidal evaluation, ABUTH (Velvetleaf)", "details": "for ABUTH, herbicide rating (0-9): rated four to five weeks after treatment, averaged", "procedure,_shortened": "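Velvetleaf (Abutilon theophrasti) seedlings were raised in jiffy flats for about two weeks and then sprayed postemergence. The test compound was dispersed in a 50/50 acetone/water mixture containing 0.5% TWEEN®20 and applied through a nozzle operating at 40 psi. Plants were kept on greenhouse benches and rated 0-9 four to five weeks after treatment.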"}, "[2]": {"test_system": "AMBROSIA ARTEMISIIFOLIA, L.", "assay": "Postemergence herbicidal evaluation, AMBEL (Ragweed, Common)", "procedure,_shortened": "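Common ragweed (Ambrosia artemisiifolia) seedlings were raised in jiffy flats for roughly two weeks, then sprayed postemergence through a nozzle at 40 psi with the test compound dispersed in 50/50 acetone/water carrying 0.5% TWEEN®20. The plants were kept on greenhouse benches under conventional care. Four to five weeks later, injury was rated visually on a 0-9 scale, and repeat tests were averaged.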"}, "[3]": {"test_system": "CASSIA OBTUSIFOLIA, L.", "assay": "Postemergence herbicidal evaluation, CASOB (Sicklepod)", "design": "key to CASOB rating / Herbicidal effect rating, CASOB / CASOB: 0-9 visual rating scale vs untreated control", "procedure,_shortened": "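Seedlings about two weeks old were sprayed with compound in 50/50 acetone/water containing 0.5% Tween 20 at about 0.125-0.500 kg/ha and kept in the greenhouse. Visual injury was rated on a 0-9 scale versus control 4-5 weeks after treatment; repeat tests were averaged.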"}, "[4]": {"test_system": "CHENOPODIUM ALBUM, L.", "assay": "Postemergence herbicidal evaluation, CHEAL (Lambsquarters, Common)", "procedure,_shortened": "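Seedlings of common lambsquarters (Chenopodium album) were raised in jiffy flats for roughly two weeks, then sprayed postemergence through a nozzle at 40 psi with test compound dispersed in 50/50 acetone/water containing 0.5% TWEEN®20 surfactant. Plants were kept on greenhouse benches under standard care and rated visually on a 0-9 scale versus controls.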"}, "[5]": {"test_system": "IPOMOEA SPP.", "assay": "Postemergence herbicidal evaluation, IPOSS (Morningglory spp.)", "details": "for IPOSS, herbicide rating (0-9): rated four to five weeks after treatment, averaged", "procedure,_shortened": "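Seedlings of morningglory (Ipomoea spp.) were raised in jiffy flats for roughly two weeks. They were then sprayed postemergence through a nozzle at 40 psi with test compound dispersed in 50/50 acetone/water containing 0.5% TWEEN®20 surfactant. Plants were kept on greenhouse benches under standard care and visually rated 0-9 against controls four to five weeks after treatment.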"}, "[6]": {"test_system": "GALIUM APARINE", "assay": "Postemergence herbicidal evaluation, GALAP (Galium)", "design": "key to GALAP rating / Herbicidal effect rating, GALAP / GALAP: 0-9 visual rating scale vs untreated control", "procedure,_shortened": "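Galium (GALAP) seedlings were raised in jiffy flats for about two weeks, then sprayed with test compounds dispersed in 50/50 acetone/water containing 0.5% TWEEN®20, delivered through a nozzle at 40 psi. Plants were kept on greenhouse benches and visually rated 0-9 against a control four to five weeks later; repeat tests were averaged.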"}, "[7]": {"test_system": "ECHINOCHLOA CRUS-GALLI, (L) BEAU", "assay": "Postemergence herbicidal evaluation, ECHCG (Barnyardgrass)", "design": "key to ECHCG rating / Herbicidal effect rating, ECHCG / ECHCG: 0-9 visual rating scale vs untreated control", "procedure,_shortened": "(§1)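 Visual 0–9 scores reflect stand, vigor, malformation, size, chlorosis and overall appearance relative to control, taken 4–5 weeks after spraying two-week-old seedlings with about 0.125–0.500 kg/ha compound in acetone/water/TWEEN 20.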"}, "[8]": {"test_system": "SETARIA VIRIDIS, (L) BEAU", "assay": "Postemergence herbicidal evaluation, SETVI (Foxtail, Green)", "design": "key to SETVI rating / Herbicidal effect rating, SETVI / SETVI: 0-9 visual rating scale vs untreated control", "details": "for SETVI, herbicide rating (0-9): rated four to five weeks after treatment, averaged", "procedure,_shortened": "as §1"}, "[9]": {"test_system": "TRITICUM AESTIVUM, CV. APOLLO", "assay": "Postemergence herbicidal evaluation, TRZAWO (Wheat, Winter, CV. APOLLO)", "procedure,_shortened": "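Wheat seedlings, raised in jiffy flats for roughly two weeks, were sprayed postemergence with test compound dispersed in a 50/50 acetone/water mixture containing 0.5% TWEEN®20 surfactant, delivered through a nozzle at 40 psi. Plants were then kept on greenhouse benches under conventional care. Four to five weeks after treatment they were rated visually on a 0-9 scale against an untreated control, and ratings from repeated tests were averaged.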"}, "[10]": {"test_system": "ZEA MAYS L.", "assay": "Postemergence herbicidal evaluation, ZEAMX (Corn, Field)", "details": "for ZEAMX, herbicide rating (0-9): crop, rated four to five weeks after treatment, averaged", "procedure,_shortened": "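Corn seedlings were raised in jiffy flats for roughly two weeks, then sprayed postemergence with the test material dispersed in 50/50 acetone/water containing 0.5% TWEEN®20 surfactant, using a nozzle at 40 psi. Plants were kept on greenhouse benches under standard care and visually rated on a 0-9 scale four to five weeks after treatment.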"}, "[11]": {"test_system": "ORYZA SATIVA, L. TEBONNET", "assay": "Rice tolerance to post-transplant applications under flooded paddy conditions, ORYSAT (Rice, Tebonnet)", "details": "for ORYSAT herbicidal rating (rice tolerance): post-transplant rice, rated three to four weeks after treatment; for ORYSAT: post-transplanted rice", "procedure,_shortened": "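Two ten-day-old Tebonnet rice seedlings were transplanted into silt loam and kept flooded 1.5 to 3 cm deep. Three days after transplanting, the flood surface received the compound in aqueous/acetone 50/50 v/v at about 0.5, 0.25, 0.125 or 0.063 kg/ha. Injury was rated visually on a 0-9 scale versus control after 3-4 weeks.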"}}}
{"compound": "COC(=O)Cn1c(=O)n(C)c(=O)n(-c2cc(Oc3c(F)cc(C(F)(F)F)cc3Cl)ccc2F)c1=O", "note": "[Compound 4, Methyl 3-{5-[(2-chloro-α,α,α,6-tetrafluoro-p-tolyl)oxy]-2-fluorophenyl}tetrahydro-5-methyl-2,4,6-trioxo-s-triazine-1(2H)-acetate]", "values": [{"measurement": "Herbicidal effect rating, ABUTH", "setting": "[1]; 0.031 kg/ha", "value": 8.9}, {"measurement": "Herbicidal effect rating, ABUTH", "setting": "[1]; 0.063 kg/ha", "value": 8.9}, {"measurement": "Herbicidal effect rating, ABUTH", "setting": "[1]; 0.125 kg/ha", "value": 9.0}, {"measurement": "Herbicidal effect rating, ABUTH", "setting": "[1]; 0.250 kg/ha", "value": 9.0}, {"measurement": "ABUTH, herbicide rating (0-9)", "setting": "[1]; Rate 0.125 kg/ha", "value": 9.0}, {"measurement": "ABUTH, herbicide rating (0-9)", "setting": "[1]; Rate 0.250 kg/ha", "value": 9.0}, {"measurement": "ABUTH, herbicide rating (0-9)", "setting": "[1]; Rate 0.500 kg/ha", "value": 9.0}, {"measurement": "Herbicidal effect rating, AMBEL", "setting": "[2]; 0.031 kg/ha", "value": 7.2}, {"measurement": "Herbicidal effect rating, AMBEL", "setting": "[2]; 0.063 kg/ha", "value": 8.0}, {"measurement": "Herbicidal effect rating, AMBEL", "setting": "[2]; 0.125 kg/ha", "value": 8.5}, {"measurement": "Herbicidal effect rating, AMBEL", "setting": "[2]; 0.250 kg/ha", "value": 8.9}, {"measurement": "Herbicidal effect rating, CASOB", "setting": "[3]; 0.031 kg/ha", "value": 8.6}, {"measurement": "Herbicidal effect rating, CASOB", "setting": "[3]; 0.063 kg/ha", "value": 8.4}, {"measurement": "Herbicidal effect rating, CASOB", "setting": "[3]; 0.125 kg/ha", "value": 9.0}, {"measurement": "Herbicidal effect rating, CASOB", "setting": "[3]; 0.250 kg/ha", "value": 8.4}, {"measurement": "Herbicidal effect rating, CHEAL", "setting": "[4]; 0.031 kg/ha", "value": 7.9}, {"measurement": "Herbicidal effect rating, CHEAL", "setting": "[4]; 0.063 kg/ha", "value": 8.8}, {"measurement": "Herbicidal effect rating, CHEAL", "setting": "[4]; 0.125 kg/ha", "value": 8.9}, {"measurement": "Herbicidal effect rating, CHEAL", "setting": "[4]; 0.250 kg/ha", "value": 9.0}, {"measurement": "Herbicidal effect rating, IPOSS", "setting": "[5]; 0.031 kg/ha", "value": 8.9}, {"measurement": "Herbicidal effect rating, IPOSS", "setting": "[5]; 0.063 kg/ha", "value": 8.9}, {"measurement": "Herbicidal effect rating, IPOSS", "setting": "[5]; 0.125 kg/ha", "value": 9.0}, {"measurement": "Herbicidal effect rating, IPOSS", "setting": "[5]; 0.250 kg/ha", "value": 9.0}, {"measurement": "IPOSS, herbicide rating (0-9)", "setting": "[5]; Rate 0.125 kg/ha", "value": 9.0}, {"measurement": "IPOSS, herbicide rating (0-9)", "setting": "[5]; Rate 0.250 kg/ha", "value": 9.0}, {"measurement": "IPOSS, herbicide rating (0-9)", "setting": "[5]; Rate 0.500 kg/ha", "value": 9.0}, {"measurement": "Herbicidal effect rating, GALAP", "setting": "[6]; 0.031 kg/ha", "value": 7.3}, {"measurement": "Herbicidal effect rating, GALAP", "setting": "[6]; 0.063 kg/ha", "value": 8.4}, {"measurement": "Herbicidal effect rating, GALAP", "setting": "[6]; 0.125 kg/ha", "value": 8.8}, {"measurement": "Herbicidal effect rating, GALAP", "setting": "[6]; 0.250 kg/ha", "value": 8.1}, {"measurement": "Herbicidal effect rating, ECHCG", "setting": "[7]; 0.031 kg/ha", "value": 3.8}, {"measurement": "Herbicidal effect rating, ECHCG", "setting": "[7]; 0.063 kg/ha", "value": 6.0}, {"measurement": "Herbicidal effect rating, ECHCG", "setting": "[7]; 0.125 kg/ha", "value": 8.2}, {"measurement": "Herbicidal effect rating, ECHCG", "setting": "[7]; 0.250 kg/ha", "value": 8.9}, {"measurement": "Herbicidal effect rating, SETVI", "setting": "[8]; 0.031 kg/ha", "value": 6.9}, {"measurement": "Herbicidal effect rating, SETVI", "setting": "[8]; 0.063 kg/ha", "value": 8.6}, {"measurement": "Herbicidal effect rating, SETVI", "setting": "[8]; 0.125 kg/ha", "value": 9.0}, {"measurement": "Herbicidal effect rating, SETVI", "setting": "[8]; 0.250 kg/ha", "value": 9.0}, {"measurement": "SETVI, herbicide rating (0-9)", "setting": "[8]; Rate 0.125 kg/ha", "value": 9.0}, {"measurement": "SETVI, herbicide rating (0-9)", "setting": "[8]; Rate 0.250 kg/ha", "value": 9.0}, {"measurement": "SETVI, herbicide rating (0-9)", "setting": "[8]; Rate 0.500 kg/ha", "value": 9.0}, {"measurement": "Herbicidal effect rating, TRZAWO", "setting": "[9]; 0.031 kg/ha", "value": 6.3}, {"measurement": "Herbicidal effect rating, TRZAWO", "setting": "[9]; 0.063 kg/ha", "value": 7.3}, {"measurement": "Herbicidal effect rating, TRZAWO", "setting": "[9]; 0.125 kg/ha", "value": 8.1}, {"measurement": "Herbicidal effect rating, TRZAWO", "setting": "[9]; 0.250 kg/ha", "value": 8.2}, {"measurement": "Herbicidal effect rating, ZEAMX", "setting": "[10]; 0.031 kg/ha", "value": 8.1}, {"measurement": "Herbicidal effect rating, ZEAMX", "setting": "[10]; 0.063 kg/ha", "value": 8.7}, {"measurement": "Herbicidal effect rating, ZEAMX", "setting": "[10]; 0.125 kg/ha", "value": 8.9}, {"measurement": "Herbicidal effect rating, ZEAMX", "setting": "[10]; 0.250 kg/ha", "value": 8.9}, {"measurement": "ZEAMX, herbicide rating (0-9)", "setting": "[10]; Rate 0.125 kg/ha", "value": 8.8}, {"measurement": "ZEAMX, herbicide rating (0-9)", "setting": "[10]; Rate 0.250 kg/ha", "value": 8.8}, {"measurement": "ZEAMX, herbicide rating (0-9)", "setting": "[10]; Rate 0.500 kg/ha", "value": 8.8}, {"measurement": "ORYSAT herbicidal rating (rice tolerance)", "setting": "[11]; Rate 0.063 kg/ha", "value": 2.0}, {"measurement": "ORYSAT herbicidal rating (rice tolerance)", "setting": "[11]; Rate 0.125 kg/ha", "value": 3.2}, {"measurement": "ORYSAT herbicidal rating (rice tolerance)", "setting": "[11]; Rate 0.250 kg/ha", "value": 3.8}, {"measurement": "ORYSAT herbicidal rating (rice tolerance)", "setting": "[11]; Rate 0.500 kg/ha", "value": 4.7}, {"measurement": "ORYSAT", "setting": "[11]; Rate 0.031 kg/ha", "value": 1.6}, {"measurement": "ORYSAT", "setting": "[11]; Rate 0.063 kg/ha", "value": 2.1}, {"measurement": "ORYSAT", "setting": "[11]; Rate 0.125 kg/ha", "value": 3.6}, {"measurement": "ORYSAT", "setting": "[11]; Rate 0.250 kg/ha", "value": 3.7}]}
